From patent US20060019997A1, “Triazole compounds and their use as metabotropic glutamate receptor antagonists” (AstraZeneca AB, priority 2004, published 2006)

Molecular target: T1, human mGluR5d (Homo sapiens, UniProt P41594)
T1 construct: expressed in transfected cells
Assay: FLIPR analysis of [Ca2+]i mobilization (Group I receptor antagonist activity)
Assay type: cell-based
Conditions: cells expressing human mGluR5d; antagonist block of agonist challenge
From the text: The pharmacological properties of the compounds of the invention can be analyzed using standard assays for functional activity. Examples of glutamate receptor assays are well known in the art as described in for example Aramori et al., Neuron 8:757 (1992), Tanabe et al., Neuron 8:169 (1992), Miller et al., J. Neuroscience 15: 6103 (1995), Balazs, et al., J. Neurochemistry 69:151 (1997). The methodology described in these publications is incorporated herein by reference. Conveniently, the compounds of the invention can be studied by means of an assay that measures the mobilization of intracellular calcium, [Ca^2+]i in cells expressing mGluR5. […]
(§1) FLIPR experiments were done using a laser setting of 0.800 W and a 0.4 second CCD camera shutter speed. […] After each addition of the compound, the fluorescence signal was sampled 50 times at 1 second intervals followed by 3 samples at 5 second intervals. Responses were measured as the peak height of the response within the sample period. […]
as §1, with “speed with excitation and emission wavelengths of 488 nm and 562 nm, respectively.” for “speed.”, “addition” for “addition of the compound,”

T1 sequence (P41594 21-942 isoform P41594-3 limits assumed): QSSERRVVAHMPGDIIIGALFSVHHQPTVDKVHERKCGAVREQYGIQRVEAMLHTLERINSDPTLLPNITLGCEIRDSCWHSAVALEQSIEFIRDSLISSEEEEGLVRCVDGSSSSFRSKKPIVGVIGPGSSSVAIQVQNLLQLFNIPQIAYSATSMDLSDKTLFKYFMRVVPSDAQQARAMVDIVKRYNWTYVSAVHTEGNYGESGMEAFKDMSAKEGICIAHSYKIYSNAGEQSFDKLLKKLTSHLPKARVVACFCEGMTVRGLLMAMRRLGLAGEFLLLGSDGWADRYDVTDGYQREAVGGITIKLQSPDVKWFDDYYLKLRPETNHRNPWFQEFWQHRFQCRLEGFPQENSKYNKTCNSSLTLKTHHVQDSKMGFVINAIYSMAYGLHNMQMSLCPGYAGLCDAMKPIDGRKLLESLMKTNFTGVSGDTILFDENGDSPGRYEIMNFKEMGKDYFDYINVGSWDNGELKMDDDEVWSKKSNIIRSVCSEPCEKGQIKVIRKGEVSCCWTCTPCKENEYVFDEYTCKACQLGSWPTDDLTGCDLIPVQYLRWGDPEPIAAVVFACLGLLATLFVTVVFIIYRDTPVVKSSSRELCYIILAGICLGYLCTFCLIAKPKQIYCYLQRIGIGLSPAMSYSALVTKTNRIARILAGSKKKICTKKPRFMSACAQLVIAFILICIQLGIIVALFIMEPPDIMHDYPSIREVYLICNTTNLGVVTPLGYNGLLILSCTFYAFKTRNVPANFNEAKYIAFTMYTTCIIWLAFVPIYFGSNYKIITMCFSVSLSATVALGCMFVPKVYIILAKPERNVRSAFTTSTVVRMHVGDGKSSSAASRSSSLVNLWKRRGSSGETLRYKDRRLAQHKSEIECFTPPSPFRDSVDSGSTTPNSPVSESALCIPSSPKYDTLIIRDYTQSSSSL

Molecule `CC(Oc1nnc(-c2ccncc2)n1C)c1cnn(-c2cccc(Cl)c2)n1` (centres unmarked) [4-(5-{1-[2-(3-chlorophenyl)-2H-1,2,3-triazol-4-yl]ethoxy}-4-methyl-4H-1,2,4-triazol-3-yl)pyridine] has an IC50 of 27 nM.
In the case of `Clc1cccc(-n2cc(CSc3nnc(-c4ccncc4)n3C3CC3)nn2)c1` [4-{5-[1-(3-Chloro-phenyl)-1H-[1,2,3]triazol-4-ylmethylsulfanyl]-4-cyclopropyl-4H-[1,2,4]triazol-3-yl}-pyridine], the IC50 is reported as 265 nM.
